Holding throughout (assay type): biochemical
Experiment [1] has as its target T1, B-Raf (Homo sapiens, UniProt P15056).
T1 construct: purchased Upstate Biotechnology
The experiment in a line: AlphaScreen kinase assay, B-Raf. To be noted: read-out: IC50, activity toward kinase B-Raf. (Bead proximity is the source of the signal in Alpha formats.)

The target in experiment [2] is T2, B-Raf V600E (Homo sapiens, UniProt P15056, V600E).
T2 construct: P4254. pFastBacBD-CDC37 BRAF D437-K722-X, V600E; His6 with pFastBac HT leader (TEV site) (N); made in house; host or cells: Sf9 (baculovirus; chaperone CDC37 co-expressed)
T2 sequence (P15056 with tags, fused parts or gaps V600E): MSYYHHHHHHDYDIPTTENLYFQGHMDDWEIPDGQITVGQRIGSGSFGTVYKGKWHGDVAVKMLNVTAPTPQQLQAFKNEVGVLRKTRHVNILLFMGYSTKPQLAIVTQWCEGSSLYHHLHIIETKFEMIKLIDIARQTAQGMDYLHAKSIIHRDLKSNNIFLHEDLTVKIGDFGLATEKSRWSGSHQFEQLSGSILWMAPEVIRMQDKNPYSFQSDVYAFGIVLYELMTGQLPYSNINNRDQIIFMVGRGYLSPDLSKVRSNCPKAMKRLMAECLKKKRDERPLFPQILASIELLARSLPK
The experiment in a line: AlphaScreen kinase assay, B-Raf V600E. As to conditions: read-out: IC50, activity toward kinase B-Raf V600E.
Description: AlphaScreen assay was used to screen additional kinases. The assay is similarly dependent on the phosphorylation of a peptide substrate. In this assay, an antibody that recognizes phosphorylated substrate is bound to an acceptor bead. The peptide substrate is attached to biotin, which binds to a donor head that contains streptavidin. Thus phosphorylated substrate is bound by antibody and streptavidin, bringing the donor and acceptor heads into close proximity when kinase is not inhibited. The donor produces singlet oxygen which results in emission from the acceptor when they are in close proximity. Conversely, when kinase is inhibited, the donor and acceptor beads are not associated and the emission from the acceptor is reduced.
AlphaScreen assays were done using compounds dissolved in DMSO to a concentration of 20 mM. The compounds were diluted accordingly to the desired final concentrations in each sample well, using 1:3 serial dilution for a total of 8 concentration points. Plates were prepared such that each kinase reaction is 20 μl in 1× kinase buffer, 5% DMSO and 10 μM ATP. After incubation of the kinase reaction for 1 hour at room temperature, 5 μl of donor beads in stop buffer (50 mM EDTA in 1× kinase buffer) was added, the sample was mixed and incubated for 20 minutes at room temperature before adding 5 μl of acceptor beads in stop buffer. The samples were incubated for 60 minutes at room temperature and the signal per well was read on AlphaQuest reader.

Experiment [3] concerns the target T3, Kit (Homo sapiens, UniProt P10721).
T3 construct: P1332.N6 BI PTP KIT M552-K948-X COD; His6 (N); made in house; host or cells: E. coli (PTP1B co-expressed)
The experiment in a line: AlphaScreen kinase assay, Kit. As to conditions: read-out: IC50, activity toward kinase Kit.

The target of experiment [4] is T4, Fms (Homo sapiens, UniProt P07333).
T4 construct: purchased Upstate Biotechnology
T4 sequence (P07333 20-972): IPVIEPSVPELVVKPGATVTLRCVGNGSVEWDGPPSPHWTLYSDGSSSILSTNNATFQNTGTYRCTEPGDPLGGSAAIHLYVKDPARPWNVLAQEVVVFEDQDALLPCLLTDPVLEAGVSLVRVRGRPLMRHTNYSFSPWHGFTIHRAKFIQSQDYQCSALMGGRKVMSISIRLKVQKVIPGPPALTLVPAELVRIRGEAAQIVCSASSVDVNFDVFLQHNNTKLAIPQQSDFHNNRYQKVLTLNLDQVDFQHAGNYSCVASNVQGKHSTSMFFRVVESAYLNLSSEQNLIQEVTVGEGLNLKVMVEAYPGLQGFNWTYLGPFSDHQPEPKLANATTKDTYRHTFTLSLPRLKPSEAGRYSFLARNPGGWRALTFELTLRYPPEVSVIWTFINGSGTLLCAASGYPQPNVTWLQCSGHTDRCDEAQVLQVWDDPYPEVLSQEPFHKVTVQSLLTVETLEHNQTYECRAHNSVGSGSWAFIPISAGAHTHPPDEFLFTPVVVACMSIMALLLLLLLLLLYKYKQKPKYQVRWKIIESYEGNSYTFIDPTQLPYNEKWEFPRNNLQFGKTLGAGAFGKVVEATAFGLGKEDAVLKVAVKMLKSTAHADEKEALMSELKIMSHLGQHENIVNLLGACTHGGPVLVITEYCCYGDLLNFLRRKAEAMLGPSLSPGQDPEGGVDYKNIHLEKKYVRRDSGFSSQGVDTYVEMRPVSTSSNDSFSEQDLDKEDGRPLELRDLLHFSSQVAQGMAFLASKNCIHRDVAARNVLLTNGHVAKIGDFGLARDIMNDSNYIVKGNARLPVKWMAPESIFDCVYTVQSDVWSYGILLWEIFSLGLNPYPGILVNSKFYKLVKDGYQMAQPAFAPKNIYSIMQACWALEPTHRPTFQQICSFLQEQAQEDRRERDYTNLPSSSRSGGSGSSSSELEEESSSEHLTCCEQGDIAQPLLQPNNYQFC
The experiment in a line: AlphaScreen kinase assay, Fms. As to conditions: read-out: IC50, activity toward kinase Fms.

The target in experiment [5] is T5, FGFR1 (Homo sapiens, UniProt P11362, C488A/C584S).
T5 construct: P1351.pET N6 BI-PTP FGFR A458-E765-X C488A, C584S; made in house; host or cells: E. coli (PTP1B co-expressed)
T5 sequence (P11362 458-765 C488A/C584S): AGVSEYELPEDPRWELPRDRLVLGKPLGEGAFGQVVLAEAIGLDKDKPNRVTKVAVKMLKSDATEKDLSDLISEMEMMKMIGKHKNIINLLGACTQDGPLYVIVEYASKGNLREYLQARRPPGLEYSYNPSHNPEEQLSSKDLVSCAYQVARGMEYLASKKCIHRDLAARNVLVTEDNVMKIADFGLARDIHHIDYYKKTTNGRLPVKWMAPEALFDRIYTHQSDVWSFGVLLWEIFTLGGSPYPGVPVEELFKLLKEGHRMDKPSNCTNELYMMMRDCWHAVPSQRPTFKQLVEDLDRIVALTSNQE
The experiment in a line: AlphaScreen kinase assay, FGFR1. To be noted: read-out: IC50, activity toward kinase FGFR.

The IC50 is the concentration that gives 50% inhibition.

Where only a bound is given, the exact number is not on record here.

T3 sequence (P10721 with tags, fused parts or gaps): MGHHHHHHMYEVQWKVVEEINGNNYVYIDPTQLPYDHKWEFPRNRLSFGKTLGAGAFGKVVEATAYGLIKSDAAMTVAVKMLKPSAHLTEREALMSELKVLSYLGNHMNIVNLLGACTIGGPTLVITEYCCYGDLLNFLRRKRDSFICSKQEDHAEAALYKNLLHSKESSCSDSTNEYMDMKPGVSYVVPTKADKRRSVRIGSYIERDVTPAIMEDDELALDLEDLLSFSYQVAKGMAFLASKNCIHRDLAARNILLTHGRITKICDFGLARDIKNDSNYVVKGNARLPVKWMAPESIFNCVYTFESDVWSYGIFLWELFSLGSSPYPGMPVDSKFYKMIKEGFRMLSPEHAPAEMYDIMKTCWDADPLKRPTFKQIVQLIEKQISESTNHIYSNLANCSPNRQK
T1 sequence (P15056 whole entry): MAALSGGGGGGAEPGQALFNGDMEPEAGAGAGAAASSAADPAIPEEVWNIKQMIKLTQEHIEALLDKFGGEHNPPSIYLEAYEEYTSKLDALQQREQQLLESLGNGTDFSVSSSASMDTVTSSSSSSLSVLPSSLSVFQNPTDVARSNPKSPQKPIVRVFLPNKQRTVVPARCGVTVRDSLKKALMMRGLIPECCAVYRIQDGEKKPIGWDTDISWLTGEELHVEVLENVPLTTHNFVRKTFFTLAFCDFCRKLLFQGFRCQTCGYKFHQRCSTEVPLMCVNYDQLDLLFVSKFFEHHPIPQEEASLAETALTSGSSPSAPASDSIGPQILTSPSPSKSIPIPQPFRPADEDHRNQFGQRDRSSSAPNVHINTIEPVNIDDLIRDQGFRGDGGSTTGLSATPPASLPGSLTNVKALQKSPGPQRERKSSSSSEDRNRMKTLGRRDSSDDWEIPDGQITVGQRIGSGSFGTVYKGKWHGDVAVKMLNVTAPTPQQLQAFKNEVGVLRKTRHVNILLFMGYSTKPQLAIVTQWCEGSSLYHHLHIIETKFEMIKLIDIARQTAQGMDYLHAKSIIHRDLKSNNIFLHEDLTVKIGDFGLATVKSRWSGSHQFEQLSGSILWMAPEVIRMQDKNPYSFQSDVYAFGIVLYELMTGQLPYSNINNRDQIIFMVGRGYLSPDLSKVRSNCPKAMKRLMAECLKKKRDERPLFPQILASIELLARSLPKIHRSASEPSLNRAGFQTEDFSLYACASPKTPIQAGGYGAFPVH

For the compound `c1ccc(CCc2c[nH]c3ncccc23)cc1` [Compound P-0200], the half-maximal inhibitory concentration (IC50) in experiment [1] and in experiment [2] was at most 10 µM each time.
In the case of `Clc1ccc(Cc2c[nH]c3ncccc23)cc1` [Compound P-0233], the half-inhibitory concentration (IC50) in experiment [3], in experiment [4] and in experiment [5] was at most 10 µM each time.
For the compound `CC(C)(C)OC(=O)N(Cc1ccc(Cl)cc1)c1ccc(C(O)c2c[nH]c3ncc(-c4cccnc4)cc23)cn1` (centres unmarked) [Compound P-0414], the 50% inhibitory concentration (IC50) in experiment [1] and in experiment [2] was at most 10 µM each time.
As for `Clc1ccc(CNc2ccc(Cc3c[nH]c4ncc(Br)cc34)cn2)cc1` [Compound P-0420], the IC50 in experiment [2], in experiment [4] and in experiment [5] was at most 10 µM in each case.
Turning to `COc1ccc(Cc2c[nH]c3ncc(-c4ccsc4)cc23)cc1OC` [Compound P-0563], the IC50 in experiment [3], in experiment [4] and in experiment [5] was at most 10 µM in each case.
For `CSc1nccc(-c2ccc(S(=O)(=O)NCc3c[nH]c4ncccc34)s2)n1` [Compound P-0854], the IC50 in experiment [3], in experiment [4] and in experiment [5] was at most 10 µM in each case.
In the case of `Cc1nc(NCc2ccc(Cl)cc2)ccc1Cc1c[nH]c2ncccc12` [Compound P-0927], the IC50 in experiment [2], in experiment [4] and in experiment [5] was at most 10 µM throughout.
With `COC(=O)c1cccc(Nc2ccnc3[nH]ccc23)c1` [Compound P-0932], the IC50 in experiment [1] was at most 10 µM.
In the case of `Oc1cccc(Nc2ccnc3[nH]ccc23)c1` [Compound P-0980], the half-maximal inhibitory concentration (IC50) in experiment [1] and in experiment [2] was at most 10 µM in each case.
Consider `CCCS(=O)(=O)Nc1ccc(F)c(Cc2c[nH]c3ncc(N4CCC(C)CC4)cc23)c1F` [Compound P-0984, Propane-1-sulfonic acid {2,4-difluoro-3-[5-(4-methyl-piperidin-1-yl)-1H-pyrrolo[2,3-b]pyridin-3-ylmethyl]-phenyl}-amide], for which the IC50 in experiment [1] and in experiment [2] was at most 10 µM throughout.
Take `OC(c1c(F)ccc(N(Cc2ccccc2)Cc2ccccc2)c1F)c1c[nH]c2ncc(-c3cccnc3)cc12` (centres unmarked) [Compound P-1080]: in experiment [1], the IC50 was at most 10 µM.
As to `CCCS(=O)(=O)Nc1cccc(C(=O)c2c[nH]c3ncc(Br)cc23)c1` [Compound P-1116, propane-1-sulfonic acid [3-(5-bromo-1H-pyrrolo[2,3-b]pyridin-3-carbonyl)-phenyl]-amide], the IC50 in experiment [1], in experiment [2] and in experiment [5] was at most 10 µM throughout.
For `COc1cccc(C(=O)c2c[nH]c3ncc(-c4cccc(OC(F)(F)F)c4)cc23)c1F` [Compound P-1344, (2-Fluoro-3-methoxy-phenyl)-[5-(3-trifluoromethoxy-phenyl)-1H-pyrrolo[2,3-b]pyridin-3-yl]-methanone], the IC50 in experiment [4] and in experiment [5] was at most 10 µM in each case.
Regarding `CCCC(=O)Nc1ccc(F)c(Cc2c[nH]c3ncc(OC)cc23)c1F` [Compound P-1369], the IC50 in experiment [3], in experiment [2], in experiment [4] and in experiment [5] was at most 10 µM each time.
As for `O=C(c1cccc(OC(F)F)c1)c1c[nH]c2ncc(-c3ccccc3)cc12` [Compound P-1409, (3-Difluoromethoxy-phenyl)-(5-phenyl-1H-pyrrolo[2,3-b]pyridin-3-yl)-methanone], the half-maximal inhibitory concentration (IC50) in experiment [3], in experiment [2], in experiment [4] and in experiment [5] was at most 10 µM throughout.
On to `O=C(c1cccc(C(F)(F)F)c1)c1c[nH]c2ncc(-c3cccnc3)cc12` [Compound P-1410, (5-Pyridin-3-yl-1H-pyrrolo[2,3-b]pyridin-3-yl)-(3-trifluoromethyl-phenyl)-methanone], for which the 50% inhibitory concentration (IC50) in experiment [3] and in experiment [4] was at most 10 µM each time.
Regarding `CCCS(=O)(=O)Nc1ccc(F)c(C(=O)c2c[nH]c3ncc(Br)cc23)c1` [Compound P-1431], in experiment [1], the IC50 was at most 10 µM.
Consider `Clc1cccc(Cl)c1Cc1c[nH]c2ncccc12` [Compound P-1483, 3-(2,6-Dichloro-benzyl)-1H-pyrrolo[2,3-b]pyridine], for which the 50% inhibitory concentration (IC50) in experiment [3] and in experiment [4] was at most 10 µM in each case.
As to `COc1ccc(Nc2c[nH]c3ncccc23)cc1` [Compound P-1488, (4-Methoxy-phenyl)-(1H-pyrrolo[2,3-b]pyridin-3-yl)-amine], the IC50 in experiment [3] and in experiment [4] was at most 10 µM each time.
In the case of `FC(F)(F)Oc1cccc(Nc2c[nH]c3ncccc23)c1` [Compound P-1493, (1H-Pyrrolo[2,3-b]pyridin-3-yl)-(3-trifluoromethoxy-phenyl)-amine], the IC50 in experiment [3] and in experiment [4] was at most 10 µM in each case.
Regarding `CS(=O)(=O)Nc1cccc(Nc2c[nH]c3ncccc23)c1` [Compound P-1498, N-[3-(1H-Pyrrolo[2,3-b]pyridin-3-ylamino)-phenyl]-methanesulfonamide], the IC50 in experiment [3] and in experiment [4] was at most 10 µM throughout.
Take `c1ccc(Oc2ccccc2Nc2c[nH]c3ncccc23)cc1` [Compound P-1501, (2-Phenoxy-phenyl)-(1H-pyrrolo[2,3-b]pyridin-3-yl)-amine]: the IC50 in experiment [3] and in experiment [4] was at most 10 µM each time.
On to `COc1cc(Nc2c[nH]c3ncccc23)cc(OC)c1` [Compound P-1503, (3,5-Dimethoxy-phenyl)-(1H-pyrrolo[2,3-b]pyridin-3-yl)-amine], for which the 50% inhibitory concentration (IC50) in experiment [3] and in experiment [4] was at most 10 µM throughout.
For the compound `CS(=O)(=O)Nc1cccc(-c2cnc3[nH]cc(C(=O)c4cc(OC(F)F)cc(OC(F)F)c4)c3c2)c1` [Compound P-1522, N-{3-[3-(3,5-Bis-difluoromethoxy-benzoyl)-1H-pyrrolo[2,3-b]pyridin-5-yl]-phenyl}-methanesulfonamide], the half-inhibitory concentration (IC50) in experiment [3], in experiment [4] and in experiment [5] was at most 10 µM throughout.
Consider `OC(c1c(F)ccc(OC(F)F)c1F)c1c[nH]c2ncc(Br)cc12` (centres unmarked) [Compound P-1525], for which the IC50 in experiment [3], in experiment [4] and in experiment [5] was at most 10 µM each time.
As to `O=C(Nc1cccc(C(=O)c2c[nH]c3ncc(-c4ccc(F)cc4)cc23)c1)Nc1cc(C(F)(F)F)ccc1Cl` [Compound P-1752, 1-(2-Chloro-5-trifluoromethyl-phenyl)-3-{3-[5-(4-fluoro-phenyl)-1H-pyrrolo[2,3-b]pyridine-3-carbonyl]-phenyl}-urea], the IC50 in experiment [1] and in experiment [2] was at most 10 µM throughout.
Consider `Cc1ccc(S(=O)(=O)Nc2ccc(F)c(C(=O)c3c[nH]c4ncc(Cl)cc34)c2F)cc1F` [Compound P-1823, N-[3-(5-Chloro-1H-pyrrolo[2,3-b]pyridine-3-carbonyl)-2,4-difluoro-phenyl]-3-fluoro-4-methyl-benzenesulfonamide], for which the concentration for half-maximal inhibition (IC50) in experiment [1] and in experiment [2] was at most 10 µM throughout.
As for `O=C(c1c(F)ccc(NS(=O)(=O)c2cc(F)cc(F)c2)c1F)c1c[nH]c2ncc(Cl)cc12` [Compound P-1841, N-[3-(5-chloro-1H-pyrrolo[2,3-b]pyridine-3-carbonyl)-2,4-difluoro-phenyl]-3,5-difluorobenzenesulfonamide], the IC50 in experiment [1] and in experiment [2] was at most 10 µM each time.

Values taken from US8415469B2, “Compounds and methods for kinase modulation, and indications therefor” (Plexxikon Inc., priority 2005, dated 2013).
